Laboratory results reported in ChEMBL document CHEMBL4392848, “Proline-based hydroxamates targeting the zinc-dependent deacetylase LpxC: Synthesis, antibacterial properties, and docking studies” (Bioorg Med Chem, 2019).
In brackets after ≈: the same amount, converted by molar mass. Blank lines part the entries; values can stand above or below the compound they belong to.

How the values were obtained:
Escherichia coli [1] = assay: Antibacterial activity against Escherichia coli BL21(DE3) assessed as diameter of inhibition zone measured after overnight incubation by agar disc diffusion method; assay type: functional
Escherichia coli [2] = assay: Antibacterial activity against Escherichia coli D22 assessed as diameter of inhibition zone measured after overnight incubation by agar disc diffusion method; assay type: functional
Escherichia coli [3] = assay: Antibacterial activity against Escherichia coli BL21(DE3) measured after 20 hrs by microdilution method; assay type: functional
Escherichia coli [4] = assay: Antibacterial activity against Escherichia coli D22 measured after 20 hrs by microdilution method; assay type: functional; conditions: D22, 20 h
[5] = Inhibition of Escherichia coli LpxC C63A mutant using UDP-3-O-[(R)-3-hydroxymyristoyl]-N-acetylglucosamine as substrate measured after 30 mins by fluorescence based microplate assay
Klebsiella pneumoniae = assay: Antibacterial activity against Klebsiella pneumoniae assessed as diameter of inhibition zone measured after 24 hrs by agar disc diffusion method; assay type: functional
Klebsiella oxytoca = assay: Antibacterial activity against Klebsiella oxytoca assessed as diameter of inhibition zone measured after 24 hrs by agar disc diffusion method; assay type: functional
Enterobacter cloacae = assay: Antibacterial activity against Enterobacter cloacae assessed as diameter of inhibition zone measured after 24 hrs by agar disc diffusion method; assay type: functional
Klebsiella aerogenes = assay: Antibacterial activity against Enterobacter aerogenes assessed as diameter of inhibition zone measured after 24 hrs by agar disc diffusion method; assay type: functional
Proteus mirabilis = assay: Antibacterial activity against Proteus mirabilis assessed as diameter of inhibition zone measured after 24 hrs by agar disc diffusion method; assay type: functional
Proteus vulgaris = assay: Antibacterial activity against Proteus vulgaris assessed as diameter of inhibition zone measured after 24 hrs by agar disc diffusion method; assay type: functional
Citrobacter freundii = assay: Antibacterial activity against Citrobacter freundii assessed as diameter of inhibition zone measured after 24 hrs by agar disc diffusion method; assay type: functional
Pseudomonas aeruginosa = assay: Antibacterial activity against Pseudomonas aeruginosa assessed as diameter of inhibition zone measured after 24 hrs by agar disc diffusion method; assay type: functional
[6] = target: 72 kDa type IV collagenase (Homo sapiens, UniProt P08253); assay: Inhibition of human MMP2 using (7-methoxycoumarin-4-yl)acetyl-Pro-Leu-Gly-Leu-(3-(2,4-dinitrophenyl)-L-2,3-diamino-propionyl)Ala-Arg-NH2 as substrate preincubated for 30 mins followed by substrate addition and measured by fluorescence assay
Sequence of 72 kDa type IV collagenase (P08253 whole entry): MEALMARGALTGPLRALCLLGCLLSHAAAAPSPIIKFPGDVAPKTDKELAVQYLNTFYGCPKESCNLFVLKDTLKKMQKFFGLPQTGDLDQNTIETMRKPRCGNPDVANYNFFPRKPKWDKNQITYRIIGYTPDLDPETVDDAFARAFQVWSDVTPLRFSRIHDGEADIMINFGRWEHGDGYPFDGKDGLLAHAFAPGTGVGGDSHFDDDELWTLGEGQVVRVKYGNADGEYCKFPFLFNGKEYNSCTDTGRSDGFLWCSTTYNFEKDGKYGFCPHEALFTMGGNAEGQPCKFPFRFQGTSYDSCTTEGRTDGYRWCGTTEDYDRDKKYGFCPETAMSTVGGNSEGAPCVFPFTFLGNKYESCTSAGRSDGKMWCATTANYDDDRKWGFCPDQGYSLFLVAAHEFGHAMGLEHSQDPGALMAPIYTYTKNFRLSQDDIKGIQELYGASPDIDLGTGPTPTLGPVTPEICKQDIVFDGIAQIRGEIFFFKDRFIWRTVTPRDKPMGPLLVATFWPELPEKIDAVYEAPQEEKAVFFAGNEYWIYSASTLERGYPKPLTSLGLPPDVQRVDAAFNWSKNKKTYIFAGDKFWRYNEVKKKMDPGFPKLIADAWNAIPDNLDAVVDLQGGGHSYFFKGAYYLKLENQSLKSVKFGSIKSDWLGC

Neutrophil collagenase = Neutrophil collagenase (Homo sapiens, UniProt P22894); assay: Inhibition of human MMP8 using (7-methoxycoumarin-4-yl)acetyl-Pro-Leu-Gly-Leu-(3-(2,4-dinitrophenyl)-L-2,3-diamino-propionyl)Ala-Arg-NH2 as substrate preincubated for 30 mins followed by substrate addition and measured by fluorescence assay
Sequence of Neutrophil collagenase (P22894 whole entry): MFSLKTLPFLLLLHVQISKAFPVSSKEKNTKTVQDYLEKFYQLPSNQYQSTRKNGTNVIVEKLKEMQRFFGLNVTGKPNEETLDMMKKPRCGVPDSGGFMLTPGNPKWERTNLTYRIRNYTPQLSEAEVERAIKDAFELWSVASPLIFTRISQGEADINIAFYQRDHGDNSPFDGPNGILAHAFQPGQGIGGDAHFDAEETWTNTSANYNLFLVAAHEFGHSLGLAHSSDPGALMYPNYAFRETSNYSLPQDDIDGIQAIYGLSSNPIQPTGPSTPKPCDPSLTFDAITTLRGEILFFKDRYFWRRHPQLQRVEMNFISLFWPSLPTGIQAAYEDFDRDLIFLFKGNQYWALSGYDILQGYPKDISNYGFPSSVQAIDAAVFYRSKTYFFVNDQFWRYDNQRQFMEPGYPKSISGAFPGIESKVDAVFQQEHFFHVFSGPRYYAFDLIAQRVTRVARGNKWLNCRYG

[7] = target: Matrix metalloproteinase-9 (Homo sapiens, UniProt P14780); assay: Inhibition of human MMP9 using (7-methoxycoumarin-4-yl)acetyl-Pro-Leu-Gly-Leu-(3-(2,4-dinitrophenyl)-L-2,3-diamino-propionyl)Ala-Arg-NH2 as substrate preincubated for 30 mins followed by substrate addition and measured by fluorescence assay
Sequence of Matrix metalloproteinase-9 (P14780 whole entry): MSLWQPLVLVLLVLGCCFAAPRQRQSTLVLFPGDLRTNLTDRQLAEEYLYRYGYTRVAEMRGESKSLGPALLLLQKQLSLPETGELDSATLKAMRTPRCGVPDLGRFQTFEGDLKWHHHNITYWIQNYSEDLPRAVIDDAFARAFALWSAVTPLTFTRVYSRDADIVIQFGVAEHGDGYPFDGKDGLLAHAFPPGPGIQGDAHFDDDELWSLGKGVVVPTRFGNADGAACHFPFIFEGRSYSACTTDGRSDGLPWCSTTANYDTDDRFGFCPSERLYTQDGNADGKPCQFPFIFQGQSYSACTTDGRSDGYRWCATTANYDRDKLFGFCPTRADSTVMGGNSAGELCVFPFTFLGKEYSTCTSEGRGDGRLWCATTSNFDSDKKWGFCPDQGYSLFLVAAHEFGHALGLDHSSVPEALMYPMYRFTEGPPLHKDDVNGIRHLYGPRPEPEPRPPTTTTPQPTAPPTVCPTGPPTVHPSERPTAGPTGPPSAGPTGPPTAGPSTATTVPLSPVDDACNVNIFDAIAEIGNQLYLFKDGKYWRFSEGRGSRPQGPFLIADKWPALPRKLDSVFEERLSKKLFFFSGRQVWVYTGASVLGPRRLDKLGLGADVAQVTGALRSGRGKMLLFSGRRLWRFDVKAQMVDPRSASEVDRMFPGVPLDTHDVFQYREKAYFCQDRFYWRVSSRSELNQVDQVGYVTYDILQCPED

Collagenase 3 = Collagenase 3 (Homo sapiens, UniProt P45452); assay: Inhibition of human MMP13 using (7-methoxycoumarin-4-yl)acetyl-Pro-Leu-Gly-Leu-(3-(2,4-dinitrophenyl)-L-2,3-diamino-propionyl)Ala-Arg-NH2 as substrate preincubated for 30 mins followed by substrate addition and measured by fluorescence assay

SMILES: CCCCCc1ccc(C#Cc2ccc(C(=O)N3C[C@@H](O)C[C@H]3C(=O)NO)cc2)cc1
diameter of the inhibition zone (DIZ) (Escherichia coli [1]): <6 mm | diameter of the inhibition zone (DIZ) (Escherichia coli [2]): 8 mm | MIC (Escherichia coli [3]): > 256 µM | MIC (Escherichia coli [4]): > 128 µM | IC50 [5]: > 200000 nM | Ki [5]: > 27600 nM | diameter of the inhibition zone (DIZ) (Klebsiella pneumoniae): <6 mm | diameter of the inhibition zone (DIZ) (Klebsiella oxytoca): 7 mm | diameter of the inhibition zone (DIZ) (Enterobacter cloacae): <6 mm | diameter of the inhibition zone (DIZ) (Klebsiella aerogenes): <6 mm | diameter of the inhibition zone (DIZ) (Proteus mirabilis): 7 mm | diameter of the inhibition zone (DIZ) (Proteus vulgaris): 8 mm | diameter of the inhibition zone (DIZ) (Citrobacter freundii): 7 mm | diameter of the inhibition zone (DIZ) (Pseudomonas aeruginosa): <6 mm | IC50 [6]: 3 nM | IC50 (Neutrophil collagenase): 15 nM | IC50 [7]: 120 nM | IC50 (Collagenase 3): 0.7 nM

SMILES: O=C(NO)[C@@H]1C[C@H](O)CN1C(=O)c1ccc(C#Cc2ccc(OCCCCCF)cc2)cc1
diameter of the inhibition zone (DIZ) (Escherichia coli [1]): <6 mm | diameter of the inhibition zone (DIZ) (Escherichia coli [2]): <6 mm | MIC (Escherichia coli [3]): > 256 µM | MIC (Escherichia coli [4]): > 256 µM | IC50 [6]: 5 nM | IC50 (Neutrophil collagenase): 21 nM | IC50 [7]: 108 nM | IC50 (Collagenase 3): 0.07 nM

SMILES: CN(C)c1ccc(C#Cc2ccc(C(=O)N3C[C@@H](O)C[C@H]3C(=O)NO)cc2)cc1
diameter of the inhibition zone (DIZ) (Escherichia coli [1]): <6 mm | diameter of the inhibition zone (DIZ) (Escherichia coli [2]): 13 mm | MIC (Escherichia coli [3]): 256 µM (≈ 101 µg/mL) | MIC (Escherichia coli [4]): 32 µM (≈ 12.6 µg/mL) | IC50 [5]: 16700 nM | Ki [5]: 2300 nM | diameter of the inhibition zone (DIZ) (Klebsiella pneumoniae): 9 mm | diameter of the inhibition zone (DIZ) (Klebsiella oxytoca): 8 mm | diameter of the inhibition zone (DIZ) (Enterobacter cloacae): 8 mm | diameter of the inhibition zone (DIZ) (Klebsiella aerogenes): 9 mm | diameter of the inhibition zone (DIZ) (Proteus mirabilis): 8 mm | diameter of the inhibition zone (DIZ) (Proteus vulgaris): <6 mm | diameter of the inhibition zone (DIZ) (Citrobacter freundii): 9 mm | diameter of the inhibition zone (DIZ) (Pseudomonas aeruginosa): <6 mm

Second part, led by results:

MIC (Escherichia coli [3]): > 256 µM | MIC (Escherichia coli [4]): 16 µM (≈ 7.19 µg/mL) | IC50 [5]: 47900 nM | IC50 [6]: 1000 nM | IC50 (Neutrophil collagenase): 2000 nM | IC50 [7]: 9000 nM | IC50 (Collagenase 3): 1000 nM
SMILES: O=C(NO)[C@@H]1C[C@@H](O)CN1C(=O)c1ccc(C#Cc2ccc(CN3CCOCC3)cc2)cc1
diameter of the inhibition zone (DIZ) (Escherichia coli [1]): 7.5 mm | diameter of the inhibition zone (DIZ) (Escherichia coli [2]): 20.7 mm | Ki [5]: 6600 nM | diameter of the inhibition zone (DIZ) (Klebsiella pneumoniae): 9 mm | diameter of the inhibition zone (DIZ) (Klebsiella oxytoca): <6 mm | diameter of the inhibition zone (DIZ) (Enterobacter cloacae): <6 mm | diameter of the inhibition zone (DIZ) (Klebsiella aerogenes): 16 mm | diameter of the inhibition zone (DIZ) (Proteus mirabilis): 9 mm | diameter of the inhibition zone (DIZ) (Proteus vulgaris): <6 mm | diameter of the inhibition zone (DIZ) (Citrobacter freundii): 10 mm | diameter of the inhibition zone (DIZ) (Pseudomonas aeruginosa): <6 mm

MIC (Escherichia coli [3]): > 256 µM | MIC (Escherichia coli [4]): 16 µM (≈ 6.73 µg/mL) | IC50 [5]: 5900 nM | IC50 [6]: 151 nM | IC50 (Neutrophil collagenase): 282 nM | IC50 [7]: 845 nM | IC50 (Collagenase 3): 11 nM
SMILES: CCCCCc1ccc(C#Cc2ccc(C(=O)N3C[C@H](O)C[C@H]3C(=O)NO)cc2)cc1
diameter of the inhibition zone (DIZ) (Escherichia coli [1]): <6 mm | diameter of the inhibition zone (DIZ) (Escherichia coli [2]): 8 mm | Ki [5]: 810 nM | diameter of the inhibition zone (DIZ) (Klebsiella pneumoniae): <6 mm | diameter of the inhibition zone (DIZ) (Klebsiella oxytoca): 7 mm | diameter of the inhibition zone (DIZ) (Enterobacter cloacae): 8 mm | diameter of the inhibition zone (DIZ) (Klebsiella aerogenes): <6 mm | diameter of the inhibition zone (DIZ) (Proteus mirabilis): <6 mm | diameter of the inhibition zone (DIZ) (Proteus vulgaris): 9 mm | diameter of the inhibition zone (DIZ) (Citrobacter freundii): 9 mm | diameter of the inhibition zone (DIZ) (Pseudomonas aeruginosa): <6 mm

MIC (Escherichia coli [3]): > 256 µM | MIC (Escherichia coli [4]): 256 µM (≈ 129 µg/mL) | IC50 [5]: > 200000 nM | IC50 [6]: 3000 nM | IC50 [7]: > 10000 nM | IC50 (Collagenase 3): > 10000 nM
SMILES: CC1(C)O[C@@H]2[C@@H](CN(C(=O)c3ccc(C#Cc4ccc(CN5CCOCC5)cc4)cc3)[C@H]2C(=O)NO)O1
diameter of the inhibition zone (DIZ) (Escherichia coli [1]): 9 mm | diameter of the inhibition zone (DIZ) (Escherichia coli [2]): 10 mm | Ki [5]: > 27600 nM | diameter of the inhibition zone (DIZ) (Klebsiella pneumoniae): 8 mm | diameter of the inhibition zone (DIZ) (Klebsiella oxytoca): 8 mm | diameter of the inhibition zone (DIZ) (Enterobacter cloacae): <6 mm | diameter of the inhibition zone (DIZ) (Klebsiella aerogenes): 8 mm | diameter of the inhibition zone (DIZ) (Proteus mirabilis): 8 mm | diameter of the inhibition zone (DIZ) (Proteus vulgaris): <6 mm | diameter of the inhibition zone (DIZ) (Citrobacter freundii): 11 mm | diameter of the inhibition zone (DIZ) (Pseudomonas aeruginosa): <6 mm
